# Laboratory results from article PMC8035258 (ChemMedChem, 2021).
# Target: Mitochondrial respiratory complex II (Mus musculus, UniProt Q8K2B3+Q9CQA3+Q9CXV1+Q9CZB0)
# Assay: Complex II inhibition assay
# Format: biochemical
# Conditions: 100 μM; mouse liver mitochondria; mean ±SD of n = 4
# Mitochondrial respiratory complex II, sequence (Q8K2B3 43-664): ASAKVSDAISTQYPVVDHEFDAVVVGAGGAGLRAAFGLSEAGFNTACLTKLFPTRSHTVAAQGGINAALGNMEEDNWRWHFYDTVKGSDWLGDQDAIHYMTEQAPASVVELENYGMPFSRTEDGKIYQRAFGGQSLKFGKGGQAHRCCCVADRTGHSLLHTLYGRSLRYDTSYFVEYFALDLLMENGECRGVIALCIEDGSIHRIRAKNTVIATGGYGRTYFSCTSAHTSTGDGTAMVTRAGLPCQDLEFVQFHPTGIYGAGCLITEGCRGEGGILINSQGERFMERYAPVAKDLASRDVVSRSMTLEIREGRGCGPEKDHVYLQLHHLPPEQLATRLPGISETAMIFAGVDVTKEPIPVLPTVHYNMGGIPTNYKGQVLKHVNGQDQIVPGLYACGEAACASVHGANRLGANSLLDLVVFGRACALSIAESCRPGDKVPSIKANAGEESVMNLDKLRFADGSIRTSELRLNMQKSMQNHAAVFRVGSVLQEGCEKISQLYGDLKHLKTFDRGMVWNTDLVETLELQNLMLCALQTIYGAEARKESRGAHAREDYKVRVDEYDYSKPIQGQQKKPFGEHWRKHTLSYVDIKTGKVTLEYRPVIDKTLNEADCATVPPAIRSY
# Mitochondrial respiratory complex II, sequence (Q9CQA3 31-282): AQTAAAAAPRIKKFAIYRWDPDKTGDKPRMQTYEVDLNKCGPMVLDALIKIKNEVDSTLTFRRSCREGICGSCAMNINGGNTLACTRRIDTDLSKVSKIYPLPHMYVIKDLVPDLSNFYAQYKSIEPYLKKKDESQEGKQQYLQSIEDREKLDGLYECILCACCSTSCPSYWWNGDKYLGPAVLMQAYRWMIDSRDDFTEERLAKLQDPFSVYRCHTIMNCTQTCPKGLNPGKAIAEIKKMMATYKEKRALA
# Mitochondrial respiratory complex II, sequence (Q9CZB0 30-169): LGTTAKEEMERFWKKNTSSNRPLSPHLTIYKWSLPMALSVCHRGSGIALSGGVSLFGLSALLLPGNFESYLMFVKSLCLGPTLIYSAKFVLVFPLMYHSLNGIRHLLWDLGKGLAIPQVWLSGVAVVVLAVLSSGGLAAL
# Mitochondrial respiratory complex II, sequence (Q9CXV1 57-159): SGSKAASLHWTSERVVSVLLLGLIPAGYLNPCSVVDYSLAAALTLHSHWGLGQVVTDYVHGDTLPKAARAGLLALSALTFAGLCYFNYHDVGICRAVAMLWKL
row,% Inhibition CII (100 μM),Structure (SMILES)
1,inactive,"O=S1(=O)N=C(NCc2ccc(Cl)cc2)Nc2ccccc21 [Compound 16d, 3-((4-Chlorobenzyl)amino)-4H-benzo[e][1,2,4]thiadiazine 1,1-dioxide]"

# Same assay, conditions: read-out: % Inhibition CII (100 μM), 100 μM; mouse liver mitochondria; mean ±SD of n = 4
row,inhibition at 100 µM [%],Structure (SMILES)
1,0,"CCNC1=NS(=O)(=O)c2cc(F)ccc2N1 [Compound 19a, 3-(Ethylamino)-7-fluoro-4H-benzo[e][1,2,4]thiadiazine 1,1-dioxide]"
2,23 ± 12.3,"O=S1(=O)N=C(NCc2ccc(SC(F)(F)F)cc2)Nc2ccc(F)cc21 [Compound 38a, 7-Fluoro-3-((4-((trifluoromethyl)thio)benzyl)amino)-4H-benzo[e] [1,2,4]thiadiazine 1,1-dioxide]"
3,29 ± 5.9,"O=S1(=O)N=C(NCc2ccccc2C(F)(F)F)Nc2ccc(Br)cc21 [Compound 35c, 7-Bromo-3-((2-(trifluoromethyl)benzyl)amino)-4H-benzo[e][1,2,4]thiadiazine 1,1-dioxide]"
4,0,"O=S1(=O)N=C(NCc2ccccc2)Nc2ccc(F)cc21 [Compound 21a, 3-(Benzylamino)-7-fluoro-4H-benzo[e][1,2,4]thiadiazine 1,1-dioxide]"
5,0,"O=C1Nc2ccccc2S(=O)(=O)N1 [Compound 11d, 2H-benzo[e][1,2,4]thiadiazin-3(4H)-one 1,1-dioxide]"
6,2 ± 12.3,"C=CCNC1=NS(=O)(=O)c2ccccc2N1 [Compound 32d, 3-(Allylamino)-4H-benzo[e][1,2,4]thiadiazine 1,1-dioxide]"
7,2 ± 5.8,"O=S1(=O)NC(=S)Nc2ccccc21 [Compound 12d, 2H-benzo[e][1,2,4]thiadiazine-3(4H)-thione 1,1-dioxide]"
8,11 ± 6.9,"CCNC1=NS(=O)(=O)c2cc(Br)ccc2N1 [Compound 19c, 7-Bromo-3-(ethylamino)-4H-benzo[e][1,2,4]thiadiazine 1,1-dioxide]"
9,0,"O=S1(=O)N=C(NCc2ccc(Cl)cc2)Nc2ccccc21 [Compound 16d, 3-((4-Chlorobenzyl)amino)-4H-benzo[e][1,2,4]thiadiazine 1,1-dioxide]"
10,0,"COc1ccccc1CNC1=NS(=O)(=O)c2ccc(Cl)cc2N1 [Compound 26b, 6-Chloro-3-((2-methoxybenzyl)amino)-4H-benzo[e][1,2,4]thiadiazine 1,1-dioxide]"
11,0,"COc1ccc(CNC2=NS(=O)(=O)c3cc(F)ccc3N2)cc1 [Compound 20a, 7-Fluoro-3-((4-methoxybenzyl)amino)-4H-benzo[e][1,2,4]thiadiazine 1,1-dioxide]"
12,24 ± 5.2,"COc1cccc(CNC2=NS(=O)(=O)c3cc(Br)ccc3N2)c1 [Compound 28c, 7-Bromo-3-((3-methoxybenzyl)amino)-4H-benzo[e][1,2,4]thiadiazine 1,1-dioxide]"
13,4 ± 5.5,"CSC1=NS(=O)(=O)c2ccccc2N1 [Compound 13d, 3-(Methylthio)-4H-benzo[e][1,2,4]thiadiazine 1,1-dioxide]"
14,0,"CC(C)NC1=NS(=O)(=O)c2cc(Br)ccc2N1 [Compound 14c, 7-Bromo-3-isopropylamino-4H-1,2,4-benzothiadiazine 1,1-dioxide]"
15,7 ± 9.9,"O=S1(=O)N=C(NCc2ccc(F)cc2)Nc2ccccc21 [Compound 17d, 3-((4-Fluorobenzyl)amino)-4H-benzo[e][1,2,4]thiadiazine 1,1-dioxide]"
16,0,"O=S1(=O)N=C(NCc2ccc(F)cc2)Nc2cc(Cl)ccc21 [Compound 17b, 6-Chloro-3-((4-fluorobenzyl)amino)-4H-benzo[e][1,2,4]thiadiazine 1,1-dioxide]"
17,9 ± 6,"Nc1ccc(CNC2=NS(=O)(=O)c3cc(Br)ccc3N2)cc1 [Compound 31c, 3-((4-Aminobenzyl)amino)-7-bromo-4H-benzo[e][1,2,4]thiadiazine 1,1-dioxide]"
18,0,"COc1ccc(CNC2=NS(=O)(=O)c3ccccc3N2)cc1 [Compound 20d, 3-((4-Methoxybenzyl)amino)-4H-benzo[e][1,2,4]thiadiazine 1,1-dioxide]"
19,24 ± 0.7,"CSC1=NS(=O)(=O)c2ccc(Cl)cc2N1 [Compound 13b, 6-Chloro-3-methylsulfanyl-4H-1,2,4-benzothiadiazine 1,1-dioxide]"
20,0,"CC(C)C(C)NC1=NS(=O)(=O)c2ccc(Cl)cc2N1 (stereo not drawn) [Compound 15b, 6-Chloro-3-((3-methylbutan-2-yl)amino)-4H-benzo[e][1,2,4]thiadiazine 1,1-dioxide]"
21,0,"CCNC1=NS(=O)(=O)c2ccccc2N1 [Compound 19d, 3-(Ethylamino)-4H-benzo[e][1,2,4]thiadiazine 1,1-dioxide]"
22,0,"CSC1=NS(=O)(=O)c2cc(F)ccc2N1 [Compound 13a, 7-Fluoro-3-methylsulfanyl-4H-1,2,4-benzothiadiazine 1,1-dioxide]"
23,0,"CC(C)NC1=NS(=O)(=O)c2ccc(Cl)cc2N1 [Compound 14b, 6-Chloro-3-isopropylamino-4H-1,2,4-benzothiadiazine 1,1-dioxide]"
24,29 ± 6.2,"Cc1ccc(CNC2=NS(=O)(=O)c3cc(Br)ccc3N2)cc1 [Compound 27c, 7-Bromo-3-((4-methylbenzyl)amino)-4H-benzo[e][1,2,4]thiadiazine 1,1-dioxide]"

row,inhibition at 100 µM [%],Structure (SMILES)
1,2 ± 6.9,"O=S1(=O)N=C(NCc2ccc(OC(F)(F)F)cc2)Nc2ccc(F)cc21 [Compound 30a, 7-Fluoro-3-((4-(trifluoromethoxy)benzyl)amino)-4H-benzo[e][1,2,4] thiadiazine 1,1-dioxide]"
2,10 ± 2.7,"CSC1=NS(=O)(=O)c2cc(Br)ccc2N1 [Compound 13c, 7-Bromo-3-methylsulfanyl-4H-1,2,4-benzothiadiazine 1,1-dioxide]"
3,1 ± 6.2,"O=S1(=O)N=C(NCc2ccc(F)cc2)Nc2ccc(F)cc21 [Compound 17a, 7-Fluoro-3-((4-fluorobenzyl)amino)-4H-benzo[e][1,2,4]thiadiazine 1,1-dioxide]"
4,34 ± 18.4,"O=S1(=O)N=C(NCCc2ccc(Cl)cc2)Nc2ccc(F)cc21 [Compound 37a, 3-((4-Chlorophenethyl)amino)-7-fluoro-4H-benzo[e][1,2,4]thiadiazine 1,1-dioxide]"
5,35 ± 9.9,"O=S1(=O)N=C(NCc2ccc(F)cc2)Nc2ccc(Br)cc21 [Compound 17c, 7-Bromo-3-((4-fluorobenzyl)amino)-4H-benzo[e][1,2,4]thiadiazine 1,1-dioxide]"
6,6 ± 1.5,"O=C1Nc2ccc(F)cc2S(=O)(=O)N1 [Compound 11a, 7-Fluoro-3-oxo-3,4-dihydro-2H-1,2,4-benzothiadiazine 1,1-dioxide]"
7,19 ± 22.6,"O=S1(=O)N=C(NCCc2ccccc2)Nc2cc(Cl)ccc21 [Compound 18b, 6-Chloro-3-(phenethylamino)-4H-benzo[e][1,2,4]thiadiazine 1,1-dioxide]"
8,6 ± 13.4,"CSC1=NS(=O)(=O)c2cc(F)ccc2N1C [Compound 42a, 7-Fluoro-4-methyl-3-(methylthio)-4H-benzo[e][1,2,4]thiadiazine 1,1-dioxide]"
9,17 ± 3.3,"COc1ccc(CCNC2=NS(=O)(=O)c3cc(Br)ccc3N2)cc1 [Compound 34c, 7-Bromo-3-((4-methoxyphenethyl)amino)-4H-benzo[e][1,2,4]thiadiazine 1,1-dioxide]"
10,0,"CSC1=NS(=O)(=O)c2ccccc2N1C [Compound 42d, 4-Methyl-3-(methylthio)-4H-benzo[e][1,2,4]thiadiazine 1,1-dioxide]"
11,0,"CC(C)C(C)NC1=NS(=O)(=O)c2ccccc2N1 (stereo not drawn) [Compound 15d, 3-((3-Methylbutan-2-yl)amino)-4H-benzo[e][1,2,4]thiadiazine 1,1-dioxide]"
12,4 ± 15.5,"O=S1(=O)N=C(NCCc2ccccc2)Nc2ccc(F)cc21 [Compound 18a, 7-Fluoro-3-(phenethylamino)-4H-benzo[e][1,2,4]thiadiazine 1,1-dioxide]"
13,6 ± 15.7,"O=S1(=O)N=C(NCc2ccc(C(F)(F)F)cc2)Nc2ccc(F)cc21 [Compound 25a, 7-Fluoro-3-((4-(trifluoromethyl)benzyl)amino)-4H-benzo[e][1,2,4]thiadiazine 1,1-dioxide]"
14,23 ± 9.9,"Cc1ccc(CNC2=NS(=O)(=O)c3cc(F)ccc3N2)cc1 [Compound 27a, 7-Fluoro-3-((4-methylbenzyl)amino)-4H-benzo[e][1,2,4]thiadiazine 1,1-dioxide]"
15,0,"O=S1(=O)N=C(NCc2ccccc2)Nc2ccccc21 [Compound 21d, 3-(Benzylamino)-4H-benzo[e][1,2,4]thiadiazine 1,1-dioxide]"
16,0,"CCNC1=NS(=O)(=O)c2ccc(Cl)cc2N1 [Compound 19b, 6-Chloro-3-(ethylamino)-4H-benzo[e][1,2,4]thiadiazine 1,1-dioxide]"
17,25 ± 7.8,"O=S1(=O)N=C(NC2CCCC2)Nc2ccc(Br)cc21 [Compound 22c, 7-Bromo-3-(cyclopentylamino)-4H-benzo[e][1,2,4]thiadiazine 1,1-dioxide]"
18,5 ± 4.5,"CC(C)C(C)NC1=NS(=O)(=O)c2cc(F)ccc2N1 (stereo not drawn) [Compound 15a, 7-Fluoro-3-((3-methylbutan-2-yl)amino)-4H-benzo[e][1,2,4]thiadiazine 1,1-dioxide]"
19,1 ± 4.7,"O=S1(=O)N=C(NC2CCCC2)Nc2ccc(F)cc21 [Compound 22a, 7-Fluoro-3-(cyclopentylamino)-4H-benzo[e][1,2,4]thiadiazine 1,1-dioxide]"
20,20 ± 5.2,"O=S1(=O)N=C(NCCc2cccc(C(F)(F)F)c2)Nc2ccc(F)cc21 [Compound 41a, 7-Fluoro-3-((3-(trifluoromethyl)phenethyl)amino)-4H-benzo[e][1,2,4] thiadiazine 1,1-dioxide]"
21,4 ± 6.9,"CC(C)NC1=NS(=O)(=O)c2cc(F)ccc2N1 [Compound 14a, 7-Fluoro-3-isopropylamino-4H-1,2,4-benzothiadiazine 1,1-dioxide]"
22,0,"O=C1Nc2ccc(Br)cc2S(=O)(=O)N1 [Compound 11c, 7-Bromo-3-oxo-3,4-dihydro-2H-1,2,4-benzothiadiazine1,1-dioxide]"
23,0,"C=CCNC1=NS(=O)(=O)c2ccc(Cl)cc2N1 [Compound 32b, 3-(Allylamino)-6-chloro-4H-benzo[e][1,2,4]thiadiazine 1,1-dioxide]"
